Measured values published in patent publication US20220348565A1, “PHARMACEUTICAL COMPOUNDS” (SENTINEL ONCOLOGY LIMITED, priority 2019, published 2022).

Columns and labels:
[1] = Gravimetric solubility in water; format: physicochemical; conditions: thermodynamic from solid; gravimetric, water
Experimental: The solubility in water of the salts was measured using a gravimetric solubility protocol.
(§1) 1 ml of water was charged into crystallisation tubes. The solid was weighed into a tared glass vial, added in portions to the solutions and the vial weighed after each addition until a hazy solution was observed. The amount in mg was then calculated to give the solubility in mg/ml.
as §1, with “The solubility in water of the salts was measured using a gravimetric solubility protocol. Thus, 1” for “1”, “mg/mL.” for “mg/ml.”

[2] = test system: panel of ninety-seven kinases; assay: DiscoverX KinomeScreen kinase selectivity competition binding assay
Outline: (§2)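 Site-directed competition binding: kinase (T7 phage-tagged or HEK-293-expressed, DNA-tagged) captured on immobilized biotinylated ligand beads, with compound at 3000 nM. Bound kinase eluted and quantified by qPCR. Reported as % Ctrl, with DMSO as 100% and control compound as 0%.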

[3] = target: T1, panel of ninety-seven kinases (Homo sapiens, UniProt Q9BXA7); assay: as above; conditions: TSSK1B; read-out: % Ctrl @ 3 μM
T1 construct: purchased DiscoverX; host or cells: T7 phage in E. coli (BL21-derived) for most kinases; HEK-293 for the rest
Outline: as §2

[4] = target: T2, panel of ninety-seven kinases (Homo sapiens, UniProt Q05397); assay: as above; conditions: PTK2; read-out: % Ctrl @ 3 μM
T2 construct: purchased DiscoverX; host or cells: T7 phage in E. coli (BL21-derived) for most kinases; HEK-293 for the rest
Outline: as §2

[5] = target: T3, panel of ninety-seven kinases (Homo sapiens, UniProt P08581); assay: as above; conditions: MET; read-out: % Ctrl @ 3 μM
T3 construct: purchased DiscoverX; host or cells: T7 phage in E. coli (BL21-derived) for most kinases; HEK-293 for the rest
Outline: as §2

[6] = target: T4, panel of ninety-seven kinases (Homo sapiens, UniProt Q8IYT8); assay: as above; conditions: ULK2; read-out: % Ctrl @ 3 μM
T4 construct: purchased DiscoverX; host or cells: T7 phage in E. coli (BL21-derived) for most kinases; HEK-293 for the rest
Outline: as §2

[7] = target: T5, panel of ninety-seven kinases (Homo sapiens, UniProt P50613); assay: as above; conditions: CDK7; read-out: % Ctrl @ 3 μM
T5 construct: purchased DiscoverX; host or cells: T7 phage in E. coli (BL21-derived) for most kinases; HEK-293 for the rest
Outline: as §2

[8] = target: T6, panel of ninety-seven kinases (Homo sapiens, UniProt P48736); assay: as above; conditions: PIK3CG; read-out: % Ctrl @ 3 μM
T6 construct: purchased DiscoverX; host or cells: T7 phage in E. coli (BL21-derived) for most kinases; HEK-293 for the rest
Outline: as §2

[9] = target: T7, panel of ninety-seven kinases (Homo sapiens, UniProt P36897); assay: as above; conditions: TGFBR1; read-out: % Ctrl @ 3 μM
T7 construct: purchased DiscoverX; host or cells: T7 phage in E. coli (BL21-derived) for most kinases; HEK-293 for the rest
Outline: as §2

[10] = target: T8, panel of ninety-seven kinases (Homo sapiens, UniProt O14757); assay: as above; conditions: CHEK1; read-out: % Ctrl @ 3 μM
T8 construct: purchased DiscoverX; host or cells: T7 phage in E. coli (BL21-derived) for most kinases; HEK-293 for the rest
Outline: as §2

[11] = target: T9, panel of ninety-seven kinases (Homo sapiens, UniProt P52333); assay: as above; conditions: JAK3; read-out: % Ctrl @ 3 μM
T9 construct: purchased DiscoverX; host or cells: T7 phage in E. coli (BL21-derived) for most kinases; HEK-293 for the rest
Outline: as §2

[12] = target: T10, panel of ninety-seven kinases (Homo sapiens, UniProt P16234); assay: as above; conditions: PDGFRA; read-out: % Ctrl @ 3 μM
T10 construct: purchased DiscoverX; host or cells: T7 phage in E. coli (BL21-derived) for most kinases; HEK-293 for the rest
Outline: as §2

[13] = target: T11, panel of ninety-seven kinases (Homo sapiens, UniProt P24941); assay: as above; conditions: CDK2; read-out: % Ctrl @ 3 μM
T11 construct: purchased DiscoverX; host or cells: T7 phage in E. coli (BL21-derived) for most kinases; HEK-293 for the rest
Outline: as §2

[14] = target: T12, panel of ninety-seven kinases (Homo sapiens, UniProt P53779); assay: as above; conditions: MAPK10; read-out: % Ctrl @ 3 μM
T12 construct: purchased DiscoverX; host or cells: T7 phage in E. coli (BL21-derived) for most kinases; HEK-293 for the rest
Outline: as §2

[15] = target: T13, panel of ninety-seven kinases (Homo sapiens, UniProt P09619); assay: as above; conditions: PDGFRB; read-out: % Ctrl @ 3 μM
T13 construct: purchased DiscoverX; host or cells: T7 phage in E. coli (BL21-derived) for most kinases; HEK-293 for the rest
Outline: as §2

[16] = target: T14, panel of ninety-seven kinases (Homo sapiens, UniProt P80192); assay: as above; conditions: MAP3K9; read-out: % Ctrl @ 3 μM
T14 construct: purchased DiscoverX; host or cells: T7 phage in E. coli (BL21-derived) for most kinases; HEK-293 for the rest
Outline: as §2

T2 sequence (Q05397 whole entry): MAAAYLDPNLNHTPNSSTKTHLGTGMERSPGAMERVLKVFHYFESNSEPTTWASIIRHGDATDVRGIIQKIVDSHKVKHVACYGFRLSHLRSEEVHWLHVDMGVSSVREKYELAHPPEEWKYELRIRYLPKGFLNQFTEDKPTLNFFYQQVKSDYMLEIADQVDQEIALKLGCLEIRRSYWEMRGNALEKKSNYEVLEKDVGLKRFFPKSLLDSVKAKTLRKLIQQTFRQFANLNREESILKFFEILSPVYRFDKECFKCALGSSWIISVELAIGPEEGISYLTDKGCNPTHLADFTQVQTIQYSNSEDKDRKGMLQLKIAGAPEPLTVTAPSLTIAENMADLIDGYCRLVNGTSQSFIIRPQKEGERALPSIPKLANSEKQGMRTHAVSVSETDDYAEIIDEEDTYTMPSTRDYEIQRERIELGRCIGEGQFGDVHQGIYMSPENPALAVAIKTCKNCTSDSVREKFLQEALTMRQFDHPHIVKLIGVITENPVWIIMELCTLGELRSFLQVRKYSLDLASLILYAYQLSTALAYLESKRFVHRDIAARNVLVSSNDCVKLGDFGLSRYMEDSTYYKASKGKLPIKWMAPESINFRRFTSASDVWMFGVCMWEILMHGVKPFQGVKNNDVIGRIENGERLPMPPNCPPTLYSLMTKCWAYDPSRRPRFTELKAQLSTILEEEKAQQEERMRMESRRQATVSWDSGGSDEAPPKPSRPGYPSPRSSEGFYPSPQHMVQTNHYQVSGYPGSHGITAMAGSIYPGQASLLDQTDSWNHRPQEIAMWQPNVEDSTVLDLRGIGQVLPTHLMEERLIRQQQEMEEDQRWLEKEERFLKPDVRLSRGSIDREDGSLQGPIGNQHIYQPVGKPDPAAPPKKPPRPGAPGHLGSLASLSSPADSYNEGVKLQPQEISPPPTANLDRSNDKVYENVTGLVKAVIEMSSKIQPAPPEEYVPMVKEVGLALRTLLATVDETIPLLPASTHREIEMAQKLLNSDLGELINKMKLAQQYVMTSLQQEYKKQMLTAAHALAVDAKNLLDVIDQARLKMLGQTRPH
T8 sequence (O14757 whole entry): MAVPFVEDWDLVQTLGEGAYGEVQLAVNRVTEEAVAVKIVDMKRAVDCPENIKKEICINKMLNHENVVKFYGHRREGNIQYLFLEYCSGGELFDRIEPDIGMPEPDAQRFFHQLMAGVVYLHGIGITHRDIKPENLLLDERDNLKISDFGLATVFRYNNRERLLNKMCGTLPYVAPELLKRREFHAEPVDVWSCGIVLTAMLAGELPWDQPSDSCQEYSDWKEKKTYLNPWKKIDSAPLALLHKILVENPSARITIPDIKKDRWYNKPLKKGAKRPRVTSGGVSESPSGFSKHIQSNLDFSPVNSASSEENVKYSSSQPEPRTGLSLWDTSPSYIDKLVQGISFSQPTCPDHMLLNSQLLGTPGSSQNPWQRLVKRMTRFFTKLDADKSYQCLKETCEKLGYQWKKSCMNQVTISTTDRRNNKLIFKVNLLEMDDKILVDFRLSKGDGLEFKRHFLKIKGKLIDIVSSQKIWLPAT
T7 sequence (P36897 34-503): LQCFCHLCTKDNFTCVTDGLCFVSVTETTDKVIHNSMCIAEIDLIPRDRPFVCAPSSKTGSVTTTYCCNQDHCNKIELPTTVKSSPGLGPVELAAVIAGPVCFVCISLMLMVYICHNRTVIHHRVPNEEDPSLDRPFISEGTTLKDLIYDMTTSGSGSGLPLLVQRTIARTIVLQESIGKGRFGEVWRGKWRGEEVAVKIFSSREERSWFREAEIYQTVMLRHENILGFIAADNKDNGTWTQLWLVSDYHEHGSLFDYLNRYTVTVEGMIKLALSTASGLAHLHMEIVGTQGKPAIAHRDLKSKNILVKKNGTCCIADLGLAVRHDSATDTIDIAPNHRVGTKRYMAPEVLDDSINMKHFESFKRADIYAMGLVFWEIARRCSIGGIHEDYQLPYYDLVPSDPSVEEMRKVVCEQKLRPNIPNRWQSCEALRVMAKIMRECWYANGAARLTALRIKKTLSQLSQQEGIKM
T14 sequence (P80192 whole entry): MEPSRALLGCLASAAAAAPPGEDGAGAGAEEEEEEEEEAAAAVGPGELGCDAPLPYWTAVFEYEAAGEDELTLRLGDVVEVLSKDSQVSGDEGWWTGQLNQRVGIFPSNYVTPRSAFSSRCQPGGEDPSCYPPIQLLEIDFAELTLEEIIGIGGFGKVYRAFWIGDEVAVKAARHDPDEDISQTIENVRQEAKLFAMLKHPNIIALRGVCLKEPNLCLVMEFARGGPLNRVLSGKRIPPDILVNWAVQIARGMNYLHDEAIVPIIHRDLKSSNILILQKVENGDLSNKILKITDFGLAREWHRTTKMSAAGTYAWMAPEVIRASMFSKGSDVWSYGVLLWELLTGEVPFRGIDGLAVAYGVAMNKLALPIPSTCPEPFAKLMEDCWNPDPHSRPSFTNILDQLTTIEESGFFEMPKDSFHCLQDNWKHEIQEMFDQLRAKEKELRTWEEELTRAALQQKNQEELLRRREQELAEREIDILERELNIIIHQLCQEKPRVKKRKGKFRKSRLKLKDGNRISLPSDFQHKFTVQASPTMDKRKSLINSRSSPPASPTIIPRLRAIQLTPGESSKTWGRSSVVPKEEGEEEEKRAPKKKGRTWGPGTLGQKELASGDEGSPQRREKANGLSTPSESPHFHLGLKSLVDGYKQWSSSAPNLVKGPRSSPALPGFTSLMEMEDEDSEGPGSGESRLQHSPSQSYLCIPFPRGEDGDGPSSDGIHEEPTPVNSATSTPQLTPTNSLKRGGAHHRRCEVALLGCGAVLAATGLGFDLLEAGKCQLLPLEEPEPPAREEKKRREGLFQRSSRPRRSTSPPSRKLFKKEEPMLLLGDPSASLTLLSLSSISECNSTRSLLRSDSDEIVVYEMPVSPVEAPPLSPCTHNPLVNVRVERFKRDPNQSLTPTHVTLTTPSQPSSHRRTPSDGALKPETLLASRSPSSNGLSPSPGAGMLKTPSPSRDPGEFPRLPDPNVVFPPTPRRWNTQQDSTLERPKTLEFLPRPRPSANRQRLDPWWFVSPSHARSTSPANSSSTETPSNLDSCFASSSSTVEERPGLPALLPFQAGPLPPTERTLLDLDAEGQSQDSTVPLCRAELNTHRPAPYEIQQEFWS
T12 sequence (P53779 whole entry): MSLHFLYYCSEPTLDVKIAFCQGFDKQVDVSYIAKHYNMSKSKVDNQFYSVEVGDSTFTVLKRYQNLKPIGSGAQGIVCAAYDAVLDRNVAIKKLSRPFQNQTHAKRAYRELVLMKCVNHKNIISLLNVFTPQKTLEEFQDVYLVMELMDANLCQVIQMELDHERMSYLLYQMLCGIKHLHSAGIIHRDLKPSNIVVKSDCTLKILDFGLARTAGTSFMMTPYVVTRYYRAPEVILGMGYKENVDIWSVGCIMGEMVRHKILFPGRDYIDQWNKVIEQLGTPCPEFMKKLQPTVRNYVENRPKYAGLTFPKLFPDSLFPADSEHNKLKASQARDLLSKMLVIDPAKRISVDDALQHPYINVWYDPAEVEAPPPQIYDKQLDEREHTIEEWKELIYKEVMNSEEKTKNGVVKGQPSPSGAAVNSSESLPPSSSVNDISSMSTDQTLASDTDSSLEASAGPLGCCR
T5 sequence (P50613 whole entry): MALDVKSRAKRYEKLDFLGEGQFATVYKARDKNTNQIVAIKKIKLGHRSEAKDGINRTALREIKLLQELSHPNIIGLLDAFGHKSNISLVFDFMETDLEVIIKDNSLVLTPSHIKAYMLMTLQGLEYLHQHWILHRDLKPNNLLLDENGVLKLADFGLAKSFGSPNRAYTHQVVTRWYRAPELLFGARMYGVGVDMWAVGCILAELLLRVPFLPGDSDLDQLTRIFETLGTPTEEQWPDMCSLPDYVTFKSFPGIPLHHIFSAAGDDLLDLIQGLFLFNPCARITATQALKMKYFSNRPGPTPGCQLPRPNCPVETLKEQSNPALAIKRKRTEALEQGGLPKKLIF
T10 sequence (P16234 24-1089): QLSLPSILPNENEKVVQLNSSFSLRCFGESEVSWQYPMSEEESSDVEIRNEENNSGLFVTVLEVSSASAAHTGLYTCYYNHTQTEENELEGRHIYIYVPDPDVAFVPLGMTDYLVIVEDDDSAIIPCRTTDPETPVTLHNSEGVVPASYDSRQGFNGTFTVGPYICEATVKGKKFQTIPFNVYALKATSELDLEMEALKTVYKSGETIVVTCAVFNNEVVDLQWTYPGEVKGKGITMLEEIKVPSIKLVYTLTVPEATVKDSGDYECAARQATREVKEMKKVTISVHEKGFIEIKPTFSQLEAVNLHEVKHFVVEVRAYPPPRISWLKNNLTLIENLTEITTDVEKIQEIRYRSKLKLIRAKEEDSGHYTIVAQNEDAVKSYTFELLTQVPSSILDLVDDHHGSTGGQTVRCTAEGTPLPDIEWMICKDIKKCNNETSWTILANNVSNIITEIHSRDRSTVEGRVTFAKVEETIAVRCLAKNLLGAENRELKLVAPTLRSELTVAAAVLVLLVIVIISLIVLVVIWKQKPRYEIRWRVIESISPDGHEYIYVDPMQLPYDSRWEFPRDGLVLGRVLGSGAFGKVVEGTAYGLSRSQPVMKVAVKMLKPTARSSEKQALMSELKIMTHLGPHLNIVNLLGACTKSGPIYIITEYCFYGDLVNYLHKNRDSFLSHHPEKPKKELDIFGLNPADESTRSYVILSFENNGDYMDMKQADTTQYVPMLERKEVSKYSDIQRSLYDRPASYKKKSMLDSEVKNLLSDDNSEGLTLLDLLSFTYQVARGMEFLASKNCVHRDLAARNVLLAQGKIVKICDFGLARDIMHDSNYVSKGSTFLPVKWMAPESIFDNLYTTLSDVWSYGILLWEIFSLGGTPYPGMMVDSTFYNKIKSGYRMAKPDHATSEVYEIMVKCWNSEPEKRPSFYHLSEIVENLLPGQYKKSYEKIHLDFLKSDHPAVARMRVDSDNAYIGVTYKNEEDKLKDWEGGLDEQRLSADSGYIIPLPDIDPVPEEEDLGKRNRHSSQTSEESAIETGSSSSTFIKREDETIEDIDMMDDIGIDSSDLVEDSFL

solubility [1]: < 5000 µg/mL
% Ctrl @ 3 μM ([2]; EGFR (variants not told apart)): 100%
% Ctrl @ 3 μM ([2]; KIT (three lines, variants not told apart)): 100%
binding activity against panel kinases (in words) ([2]; ninety-seven kinases, 3 μM): poor or non-existent binding activity
percent of control kinase binding to immobilized ligand at 3 µM [3]: 100%
percent of control kinase binding to immobilized ligand at 3 µM [4]: 98%
percent of control kinase binding to immobilized ligand at 3 µM [5]: 100%
percent of control kinase binding to immobilized ligand at 3 µM [6]: 93%
percent of control kinase binding to immobilized ligand at 3 µM [7]: 100%
percent of control kinase binding to immobilized ligand at 3 µM [8]: 100%
percent of control kinase binding to immobilized ligand at 3 µM [9]: 95%
percent of control kinase binding to immobilized ligand at 3 µM [10]: 100%
percent of control kinase binding to immobilized ligand at 3 µM [11]: 100%
percent of control kinase binding to immobilized ligand at 3 µM [12]: 100%
percent of control kinase binding to immobilized ligand at 3 µM [13]: 94%
percent of control kinase binding to immobilized ligand at 3 µM [14]: 93%
percent of control kinase binding to immobilized ligand at 3 µM [15]: 100%
percent of control kinase binding to immobilized ligand at 3 µM [16]: 96%
SMILES: CN(C)CCNC(=O)c1ccc(-c2ccc(-c3ccc(Cl)cc3)n2-c2ccccc2C(F)(F)F)cc1 (single isomer, unassigned) [Atropisomer A-2, 4-[5-(4-chlorophenyl)-1-[2-(trifluoromethyl)phenyl]pyrrol-2-yl]-N-[2-(dimethylamino)ethyl]benzamide]
